Reference: US20100292205A1, “Pyrimidone Compounds As GSK-3 Inhibitors” (PFIZER INC., priority 2006, published 2010)

Target: T1, Recombinant human GSK3β (Homo sapiens, UniProt P49841)
T1 construct: His-tag; made in house; host or cells: Sf9 insect cells / baculovirus
Experiment: GSK-3β (Glycogen Synthase Kinase) cell free enzyme assay
Type: biochemical
Settings: 1 μM; Examples 157-199; read-out: Percent inhibition at 1 μM
Method: Assay Protocol for GSK-3β (Glycogen Synthase Kinase) in a Cell Free Enzyme Assay
Recombinant human GSK3β was expressed in SF9/Baculo virus cells. His-tag protein was purified by affinity chromatography to a Ni-NTA Superflow column. Enzyme activity was assayed as the incorporation of [33P] from the gamma phosphate of [33P]ATP (PerkinElmer) into biotinylated peptide substrate bio-LC-S-R-H-S-S-P-H-Q-pS-E-D-E-E-E-OH (Anaspec). Reactions were carried out in a buffer containing 8 mM MOPS (pH 7.0), 10 mM Magnesium Acetate, 0.2 mM EDTA, 1 mM DTT and 2 uM cold ATP. The 33P-ATP was added for 0.025 uCi/well (120 uL) and the final concentration of substrate was 1.0 uM. Enzyme was preincubated with test agent for 30 minutes at room temperature followed by initiation of the reaction by the addition of substrate mix. Incubations were carried out at RT for 60 min. Reactions were stopped by addition of 0.66 volume of buffer containing: 12.5 mM EDTA, 0.25% Triton-X 100, 125 uM ATP, and 6.2 mg/ml streptavidin coated SPA beads (Amersham) in PBS without Ca or Mg. Radioactivity associated with the beads was quantified by scintillation counting of CPM in a Trilux counter (PerkinElmer).
Examples 42 to 60 were prepared using the analogous procedure described to prepare Example 41, substituting the appropriate starting material (Examples 1 to 35) and coupling with the appropriate acid. The assay protocol used is the percent inhibition at 1 μM for GSK-3β in the cell free enzyme assay described above.

T1 sequence (P49841 whole entry): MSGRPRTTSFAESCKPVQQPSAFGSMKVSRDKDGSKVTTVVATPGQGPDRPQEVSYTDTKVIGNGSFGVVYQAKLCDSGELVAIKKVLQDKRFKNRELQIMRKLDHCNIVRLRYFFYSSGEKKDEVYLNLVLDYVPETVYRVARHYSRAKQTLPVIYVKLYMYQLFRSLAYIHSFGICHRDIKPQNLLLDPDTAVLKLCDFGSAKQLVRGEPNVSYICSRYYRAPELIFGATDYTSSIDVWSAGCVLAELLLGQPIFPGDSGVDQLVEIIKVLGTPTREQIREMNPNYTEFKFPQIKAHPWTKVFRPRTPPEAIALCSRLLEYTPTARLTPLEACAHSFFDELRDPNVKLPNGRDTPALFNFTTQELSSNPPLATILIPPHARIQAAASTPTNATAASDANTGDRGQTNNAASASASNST

SMILES	inhibition at 1 µM
CCN(C[C@H]1CCCN1S(=O)(=O)c1ccccc1)c1nc(-c2ccncc2)cc(=O)n1C [Example 189, 2-(Ethyl{[(2R)-1-(phenylsulfonyl)pyrrolidin-2-yl]methyl}amino)-3-methyl-6-pyridin-4-ylpyrimidin-4(3H)-one]	95%
Cn1c(NC[C@H]2CCCN2S(C)(=O)=O)nc(-c2ccncc2)cc1=O [Example 168, 3-Methyl-2-({[(2R)-1-(methylsulfonyl)pyrrolidin-2-yl]methyl}amino)-6-pyridin-4-ylpyrimidin-4(3H)-one]	78%
Cn1c(N[C@H]2[C@@H]3CN(S(=O)(=O)c4ccccc4)C[C@@H]32)nc(-c2ccncc2)cc1=O [Example 177, 3-Methyl-2-{[(1R,5S,6s)-3-(phenylsulfonyl)-3-azabicyclo[3.1.0]hex-6-yl]amino}-6-pyridin-4-ylpyrimidin-4(3H)-one]	97%
CN(c1nc(-c2ccncc2)cc(=O)n1C)C1CCN(S(=O)(=O)c2ccccc2)C1 (stereo not drawn) [Example 180, 3-Methyl-2-{methyl[1-(phenylsulfonyl)pyrrolidin-3-yl]amino}-6-pyridin-4-ylpyrimidin-4(3H)-one]	93%

Same assay, conditions: 1 μM; Examples 201-221; read-out: Percent inhibition at 1 μM

SMILES	inhibition at 1 µM
COC(=O)N1CCC(Nc2nc(-c3ccncc3)cc(=O)n2C)C1 (stereo not drawn) [Example 204, Methyl 3-[(1-methyl-6-oxo-4-pyridin-4-yl-16-dihydropyrimidin-2-yl)amino]pyrrolidine-1-carboxylate]	82%
COC(=O)N1CCCC(Nc2nc(-c3ccncc3)cc(=O)n2C)CC1 (stereo not drawn) [Example 205, Methyl 4-[(1-methyl-6-oxo-4-pyridin-4-yl-16-dihydropyrimidin-2-yl)amino]azepane-1-carboxylate]	86%

Same assay, conditions: 1 μM; Examples 236-262; read-out: Percent inhibition at 1 μM

SMILES	inhibition at 1 µM
CCN(c1nc(-c2ccncc2)cc(=O)n1C)C1CCN(C)CC1 [Example 248, 2-[Ethyl(1-methylpiperidin-4-yl)amino]-3-methyl-6-pyridin-4-ylpyrimidin-4(3H)-one]	39%
CN1C[C@H]2CC[C@@H](C1)N2c1nc(-c2ccncc2)cc(=O)n1C [Example 239, 3-Methyl-2-[(1R,5S)-3-methyl-38-diazabicyclo[3.2.1]oct-8-yl]-6-pyridin-4-ylpyrimidin-4(3H)-one]	57%
CN1CCC(Nc2nc(-c3ccncc3)cc(=O)n2C)C1 (stereo not drawn) [Example 240, 3-Methyl-2-[(1-methylpyrrolidin-3-yl)amino]-6-pyridin-4-ylpyrimidin-4(3H)-one]	49%

Same assay, conditions: 1 μM; GSK-3β cell free enzyme assay; Examples 42-60; read-out: Percent inhibition at 1 μM

SMILES	inhibition at 1 µM
CC(=O)N1C[C@@H]2[C@H](C1)[C@H]2Nc1nc(-c2ccncc2)cc(=O)n1C [Example 49, 2-{[(1R,5S,6s)-3-Acetyl-3-azabicyclo[3.1.0]hex-6-yl]amino}-3-methyl-6-pyridin-4-ylpyrimidin-4(3H)-one]	75%
CC(=O)N1CCCC(N(C)c2nc(-c3ccncc3)cc(=O)n2C)CC1 (stereo not drawn) [Example 53, 2-[(1-Acetylazepan-4-yl)(methyl)amino]-3-methyl-6-pyridin-4-ylpyrimidin-4(3H)-one]	79%
CC(=O)N1CCCCC(Nc2nc(-c3ccncc3)cc(=O)n2C)C1 (stereo not drawn) [Example 46, 2-[(1-Acetylazepan-3-yl)amino]-3-methyl-6-pyridin-4-ylpyrimidin-4(3H)-one]	51%
CCN(c1nc(-c2ccncc2)cc(=O)n1C)C1CCCN(C(C)=O)CC1 (stereo not drawn) [Example 56, 2-[(1-Acetylazepan-4-yl)(ethyl)amino]-3-methyl-6-pyridin-4-ylpyrimidin-4(3H)-one]	85%

Same assay, conditions: cell free enzyme assay; Examples 1-35

SMILES	IC50
Cn1c(N2CC[C@@](O)(c3ccccc3)[C@H]3CCCC[C@H]32)nc(-c2ccncc2)cc1=O [Example 1, 2-[(4S,4aS,8aR)-4-Hydroxy-4-phenyloctahydro-quinolin-1(2H)-yl]-3-methyl-6-pyridin-4-ylpyrimidin-4(3H)-one]	0.7 nM
CN(c1nc(-c2ccncc2)cc(=O)n1C)C1CCN(C(=O)OC(C)(C)C)C1 (stereo not drawn) [Example 11, tert-butyl 3-[Methyl(1-methyl-6-oxo-4-pyridin-4-yl-1,6-dihydropyrimidin-2-yl)amino]pyrrolidine-1-carboxylate]	17.7 nM
Cn1c(N[C@@H]2CC[C@@H](NC(=O)OC(C)(C)C)C2)nc(-c2ccncc2)cc1=O [Example 21, tert-butyl {(1R,3R)-3-[(1-Methyl-6-oxo-4-pyridin-4-yl-1,6-dihydropyrimidin-2-yl)amino]cyclopentyl} carbamate]	52.5 nM
Cn1c(N2[C@@H]3CC[C@H]2CN(C(=O)OC(C)(C)C)C3)nc(-c2ccncc2)cc1=O [Example 12, tert-butyl (1R,5S)-8-(1-Methyl-6-oxo-4-pyridin-4-yl-1,6-dihydropyrimidin-2-yl)-3,8-diazabicyclo[3.2.1] octane-3-carboxylate]	32.4 nM
Cn1c(NCC2CCCCN2C(=O)OC(C)(C)C)nc(-c2ccncc2)cc1=O (stereo not drawn) [Example 35, tert-butyl 2-{[(1-Methyl-6-oxo-4-pyridin-4-yl-1,6-dihydropyrimidin-2-yl)amino]methyl} piperidine-1-carboxylate]	168 nM

Same assay, conditions: cell free enzyme assay; Examples 62-155

SMILES	IC50
CN(c1nc(-c2ccncc2F)cc(=O)n1C)[C@H]1[C@@H]2CN(C(=O)C(C)(C)C)C[C@@H]21 [Example 121, 2-{[(1R,5S,6s)-3-(2,2-Dimethylpropanoyl)-3-azabicyclo[3.1.0]hex-6-yl](methyl)amino}-6-(3-fluoropyridin-4-yl)-3-methylpyrimidin-4(3H)-one]	1.41 nM
CN(c1nc(-c2ccncc2F)cc(=O)n1C)[C@H]1[C@@H]2CN(C(=O)C3CC=CCC3)C[C@@H]21 (stereo partly drawn) [Example 140, 2-{[(1R,5S,6s)-3-(Cyclohex-3-en-1-ylcarbonyl)-3-azabicyclo[3.1.0]hex-6-yl](methyl)amino}-6-(3-fluoropyridin-4-yl)-3-methylpyrimidin-4(3H)-one]	8.72 nM
CC[C@@H](Oc1ccccc1)C(=O)N1C[C@@H]2[C@H](C1)[C@H]2N(C)c1nc(-c2ccncc2F)cc(=O)n1C [Example 145, 6-(3-Fluoropyridin-4-yl)-3-methyl-2-{methyl[(1R,5S,6s)-3-(2-phenoxybutanoyl)-3-azabicyclo[3.1.0]hex-6-yl]amino}pyrimidin-4(3H)-one]	13.2 nM
CN(c1nc(-c2ccncc2F)cc(=O)n1C)C1[C@H]2CN(C(=O)C34CC[C@@](C)(C(=O)O3)C4(C)C)C[C@@H]12 (stereo partly drawn) [Example 134, 6-(3-Fluoropyridin-4-yl)-3-methyl-2-{methyl[(1R,5S,6R)-3-{[(1S,4R)-4,7,7-trimethyl-3-oxo-2-oxabicyclo[2.2.1]hept-1-yl]carbonyl}-3-azabicyclo[3.1.0]hex-6-yl]amino}pyrimidin-4(3H)-one]	65.7 nM

Same assay, conditions: cell free enzyme assay; Examples 222-234

SMILES	IC50
CCOC(=O)N1CCC[C@@H](Nc2nc(-c3ccncn3)cc(=O)n2C)C1 [Example 229, Ethyl (3R)-3-[(1-methyl-6-oxo-1,6-dihydro-4,4′-bipyrimidin-2-yl)amino]piperidine-1-carboxylate]	1.99 nM

Same assay, conditions: cell free enzyme assay; Examples 265-291

SMILES	IC50
COCC(C)n1nnnc1N1C[C@@H]2[C@H](C1)[C@H]2N(C)c1nc(-c2ccncc2F)cc(=O)n1C (stereo partly drawn) [Example 287, 6-(3-Fluoropyridin-4-yl)-2-[{(1R,5S,6s)-3-[1-(2-methoxy-1-methylethyl)-1H-tetrazol-5-yl]-3-azabicyclo[3.1.0]hex-6-yl}(methyl)amino]-3-methylpyrimidin-4(3H)-one]	3.06 nM
